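48-hour exposure; five concentrations; linearly interpolated endpoints. At the GI50, growth is halved. TGI marks complete inhibition of growth.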

Test systems include SF-295 CNS; BT-549 breast; NCI-H226 lung; NCI-H23 lung; T-47D breast; K-562 leukemia; 786-0 renal; M14 melanoma; MDA-N; DLD-1 colon; KM20L2 colon.
Common to all, as to assay: NCI anticancer screen, dose series, 48 h

In the case of `C(=Nc1ccc2c(c1)Cc1ccccc1-2)c1ccccn1`, the TGI in the test on SF-295 CNS, with BT-549 breast, in the test with NCI-H226 lung, in the test with NCI-H23 lung, in the test with T-47D breast and in the test on K-562 leukemia was greater than 100 µM in each case. In addition, the TGI in the test with 786-0 renal, in the test with M14 melanoma and in the test with MDA-N was greater than 100 µM in each case.
For the compound `Cc1ccc(CSC(N)=Nc2ccccc2)cc1C`, the TGI in the test on SF-295 CNS is greater than 100 µM; in the test with BT-549 breast, 50.8 µM; with NCI-H226 lung it was 43 µM; with NCI-H23 lung, 57 µM; with T-47D breast it was 45 µM; with K-562 leukemia, 61.7 µM. For the same compound, the TGI is 44.7 µM with 786-0 renal, 41.2 µM in the test on M14 melanoma and 43.8 µM in the test with MDA-N.
For the compound `COc1ccc(C2COc3c(ccc(O)c3C)C2)cc1OC` (stereo unspecified), the TGI is greater than 176 µM in the test with SF-295 CNS; greater than 139 µM with NCI-H226 lung; greater than 200 µM in the test with NCI-H23 lung; greater than 200 µM with K-562 leukemia; greater than 200 µM with DLD-1 colon; greater than 200 µM in the test with KM20L2 colon.
In the case of `Cc1nc2ccc(S(=O)(=O)Nc3nccs3)cc2c(=O)n1NS(=O)(=O)c1nccs1`, the TGI in the test with SF-295 CNS, with BT-549 breast, in the test with NCI-H226 lung, in the test on NCI-H23 lung, in the test with T-47D breast and in the test with K-562 leukemia was greater than 100 µM in each case. In addition, the TGI in the test on M14 melanoma and in the test on MDA-N was greater than 100 µM in each case.
For the compound `N[C@H](Cc1ccc2oc3cc(=O)c4ccccc4c-3nc2c1)C(=O)O`, the TGI was greater than 100 µM with SF-295 CNS; greater than 100 µM in the test on NCI-H226 lung; greater than 100 µM in the test on NCI-H23 lung; greater than 100 µM in the test with T-47D breast; 71.2 µM with K-562 leukemia; greater than 100 µM with 786-0 renal. The TGI with M14 melanoma stood at 39.9 µM; with MDA-N, 38.1 µM.
For the compound `CCCCC1C=Cn2c(=O)oc3c(OC(C)C)c(C)c(O)c1c32` (stereo unspecified), the TGI in the test on SF-295 CNS is 7.16 µM; with BT-549 breast, 13.4 µM; in the test with NCI-H226 lung, 8.12 µM; in the test on NCI-H23 lung, 4.71 µM; in the test on T-47D breast, 5.93 µM; in the test on K-562 leukemia, greater than 35.3 µM. Further, the results for the TGI in the test with M14 melanoma and in the test with MDA-N were 3.15 µM and 9.67 µM, respectively.
With `COC(=O)C1=C(OC)[C@H]2C#C/C=C\C#C[C@@H]3Nc4c(cc(O)c5c4C(=O)c4ccccc4C5=O)[C@]24O[C@@]34[C@H]1C`, the TGI is less than 0.01 µM with SF-295 CNS; less than 0.0339 µM in the test with BT-549 breast; less than 0.01 µM with NCI-H226 lung; less than 0.01 µM in the test with NCI-H23 lung; 0.0139 µM with K-562 leukemia; less than 0.01 µM with 786-0 renal. Also, the TGI is less than 0.01 µM in the test with M14 melanoma and 0.0113 µM with MDA-N.
As for `COc1ccc2c(c1)c(-c1nc(-c3c[nH]c4ncccc34)cs1)cn2CCCCN1CCCCC1`, the GI50 with SF-295 CNS is 1.6 µM; in the test with BT-549 breast, 1.66 µM; with K-562 leukemia it was 1.61 µM. Further, the TGI in the test on SF-295 CNS amounted to 3.02 µM; in the test on BT-549 breast, 3.13 µM; in the test with K-562 leukemia, 3.49 µM.
`C[n+]1c2ccccc2c(NC(CCCN=C(N)N)C(=O)O)c2ccccc21` (stereo unspecified): the TGI with SF-295 CNS, in the test with NCI-H226 lung, in the test on NCI-H23 lung, with K-562 leukemia, in the test on DLD-1 colon and in the test with 786-0 renal was greater than 100 µM in each case. Moreover, the TGI in the test on M14 melanoma and in the test on KM20L2 colon was greater than 100 µM in each case.
On to `CN(C)CCCNc1ccc2ncn3c4ccc(O)cc4c(=O)c1c23`, for which the TGI in the test with SF-295 CNS worked out at 15.6 µM; in the test on BT-549 breast it was 31.9 µM; with NCI-H226 lung, 3.59 µM; with NCI-H23 lung it was 10.7 µM; with T-47D breast, 30.5 µM; in the test on K-562 leukemia, 28 µM. The TGI was 16.5 µM in the test on DLD-1 colon; 14.7 µM in the test with 786-0 renal; 16.4 µM in the test with M14 melanoma; 14.4 µM in the test with KM20L2 colon; 17.6 µM with MDA-N.
Turning to `COc1ccc(/C=N/n2cnc3c(c2=O)SC(=C(C#N)C#N)N3c2ccccc2)cc1`, the TGI in the test with SF-295 CNS, with NCI-H226 lung, in the test with NCI-H23 lung, in the test on K-562 leukemia and in the test with DLD-1 colon was greater than 100 µM each time.
`C/C(=N\NC(=S)N1CCCC1)c1nc2ncccc2[nH]1`: the TGI was 22.6 µM in the test with SF-295 CNS; 13 µM with BT-549 breast; 4.31 µM in the test on NCI-H226 lung; 22.1 µM with NCI-H23 lung; greater than 100 µM with T-47D breast; 37 µM with K-562 leukemia. The TGI was 21.7 µM in the test on 786-0 renal, 31.3 µM in the test on M14 melanoma and greater than 100 µM in the test with MDA-N.
As for `CCOC(=O)c1sc2nc(SC)nc(Nc3ccc4c(c3)OCCO4)c2c1N`, the TGI in the test on SF-295 CNS is 58.1 µM; in the test with BT-549 breast, 32 µM; in the test on NCI-H226 lung, greater than 100 µM; in the test with NCI-H23 lung it was 36.5 µM; in the test on T-47D breast, 26.2 µM; with K-562 leukemia, greater than 100 µM. The TGI in the test on M14 melanoma was 31.7 µM; in the test on MDA-N it was greater than 100 µM.
In the case of `O=C1c2ccccc2OCC12OC21C=CC(Cl)=CC1` (stereo unspecified), the TGI with BT-549 breast was 83.7 µM; in the test on NCI-H226 lung, greater than 100 µM; in the test on NCI-H23 lung, 37.9 µM; with K-562 leukemia, greater than 100 µM; in the test on M14 melanoma it was greater than 100 µM; in the test on MDA-N, 43.8 µM.
Consider `CCCO[C@@H]1[C@@H](OC(C)=O)[C@@H](OC(C)=O)C(C)(C)/C=C/[C@H](C)C(=O)[C@@]2(OC(C)=O)C[C@@](C)(OC(C)=O)[C@H](OC(C)=O)[C@@H]2[C@H]2OC(=O)CC[C@@]12OC(=O)c1ccccc1`, for which the TGI in the test on SF-295 CNS, in the test on BT-549 breast, in the test with NCI-H226 lung, in the test with NCI-H23 lung, with T-47D breast and in the test on K-562 leukemia was greater than 25 µM throughout. In addition, the TGI in the test with M14 melanoma and with MDA-N was greater than 25 µM in each case.
In the case of `CCCC(=O)[O-].CCCC(=O)[O-].NCCN.NCCN.[Co+3].[O-][Cl+3]([O-])([O-])[O-]`, the TGI in the test with SF-295 CNS, in the test on NCI-H23 lung, in the test with K-562 leukemia, in the test with DLD-1 colon, in the test on 786-0 renal and in the test with M14 melanoma was greater than 100 µM in each case. For the same compound, in the test with KM20L2 colon, the TGI is greater than 100 µM. For the same compound, the GI50 in the test on DLD-1 colon and with KM20L2 colon was greater than 100 µM throughout.
For `CN(C)CCNC(=O)c1cccc2[nH]c(-c3ccccn3)nc12`, the TGI in the test with SF-295 CNS is greater than 100 µM; with NCI-H226 lung, 60.8 µM; in the test with NCI-H23 lung, greater than 100 µM; in the test on K-562 leukemia, greater than 100 µM; in the test with DLD-1 colon, greater than 100 µM; in the test on KM20L2 colon, greater than 100 µM.
Consider `CCCn1cnc2c(SCc3ccc(Cl)cc3)nc(N)nc21`, for which the TGI was 45.9 µM in the test on SF-295 CNS; greater than 100 µM in the test with BT-549 breast; greater than 100 µM with NCI-H23 lung; greater than 100 µM in the test with T-47D breast; 48.2 µM in the test with K-562 leukemia; greater than 100 µM in the test on 786-0 renal. Also, the TGI came out at 81.5 µM with M14 melanoma and 55 µM in the test on MDA-N.
As to `C=CCCC1(C)CCCNC1=S` (stereo unspecified), the TGI in the test on SF-295 CNS, in the test on NCI-H226 lung, with NCI-H23 lung, in the test on K-562 leukemia, with DLD-1 colon and in the test with M14 melanoma was greater than 100 µM each time. Besides, the TGI with KM20L2 colon is greater than 100 µM.
Turning to `O=C(N[C@@H](Cc1coc2ccccc12)B(O)O)[C@@H]1C[C@H]2CC[C@@H]1O2`, the GI50 is 3.93 µM in the test on SF-295 CNS; 3.07 µM in the test on BT-549 breast; 1.13 µM with NCI-H226 lung; 9.18 µM in the test on NCI-H23 lung; 2.77 µM in the test on T-47D breast; 9.99 µM in the test with K-562 leukemia. In the test with M14 melanoma, the GI50 is 3.01 µM. In addition, the TGI was 17.6 µM in the test on SF-295 CNS; 42.2 µM with BT-549 breast; 2.76 µM in the test on NCI-H226 lung; greater than 100 µM with NCI-H23 lung; greater than 100 µM in the test on T-47D breast; greater than 100 µM in the test with K-562 leukemia. The compound also came in with a TGI with M14 melanoma of 82.7 µM.

Source of the values: PubChem BioAssay (NCI).
